row,Structure (SMILES),pKa
1,Cc1cccc(Nc2ccccc2C(=O)O)c1C,4.5
2,O=C(c1ccccc1)c1ccc2n1CCC2C(=O)O (stereo unspecified),3.5
3,Cc1ccc(C(=O)c2ccc(CC(=O)O)n2C)cc1,3.5
4,CCn1nc(C(=O)O)c(=O)c2cc3c(cc21)OCO3,4.7

# Remark: another data set of the same source
row,Structure (SMILES),pKa
1,CN(C)[C@@H]1C(O)=C(C(N)=O)C(=O)[C@@]2(O)C(O)=C3C(=O)c4c(O)cccc4[C@@](C)(O)C3[C@H](O)C12 (stereo partly specified),7.32
2,CCCCCCCCCC(=O)OC(CC(=O)O)C[N+](C)(C)C (stereo unspecified),3.65
3,O=C(O)c1cccnc1,2.05
4,Nc1ccc(C(=O)O)cc1,4.87
5,CCCCCCCC(=O)OC(CC(=O)O)C[N+](C)(C)C (stereo unspecified),3.6
6,COc1ccc2c3c1O[C@H]1[C@@H](O)C=CC4[C@@H](C2)NCC[C@@]341 (stereo partly specified),9.23
7,CCCC(=O)OC(CC(=O)O)C[N+](C)(C)C (stereo unspecified),3.56
